In article PMC6321168, “Comparative Study on Excretive Characterization of Main Components in Herb Pair Notoginseng-Safflower and Single Herbs by LC–MS/MS” (Pharmaceutics, 2018):

Test: Fecal excretion study in rats after oral NS, SF or CNS (LC–MS/MS)
Format: in vivo
Details: rat feces
Experimental: The animal room was set at constant temperature of 20 ± 2 °C with humidity of 50 ± 20% and 12/12 h light/dark cycle.
Eighteen male rats were fasted for 12 h before starting the experiment. The rats were divided into three groups at random (n = 6) and received NS (60 mg/kg), SF (50 mg/kg), and NS (60 mg/kg) + SF (50 mg/kg), respectively, by oral gavage. The rats were placed in separate metabolic cages. The urine samples were collected at 0–2, 2–4, 4–6, 6–8, 8–12, 12–24, 24–36, 36–48, 48–72, 72–96, and 96–120 h. The feces samples were collected at 0–4, 4–8, 8–12, 12–24, 24–36, 36–48, 48–72, 72–96, and 96–120 h. The urine volume was recorded and the dry feces were measured for each collection period. Samples were stored at −80 °C until analysis.
Feces samples were homogenized in ultrapure water (1 g/15 mL), soaked for 30 min, ultrasonically extracted for 30 min and centrifuged at 9000 rpm for 8 min. An aliquot of 200 μL feces water extraction solution was mixed with 10 μL of IS and then extracted three times with water-saturated n-BuOH (150 μL). The upper organic phase was combined and evaporated to dryness using a ZLS-2 vacuum centrifugal concentrator. The residue was treated as the urine sample and a 1-μL aliquot was injected for LC–MS analysis.
Ultra fast liquid chromatography (UFLC) analysis was performed using a Shimadzu UFLC system (DGU-20A3R Degasser; LC-20AD pump; SIL-20AXR Autosampler; CTO-20AC Column Oven) (Nakagyo-Ku, Koyoto, Japan). […] Because of the different endogenous substances in the urine and feces samples, different elution gradients were used to alleviate the matrix effects for the analytes.
The mass spectrometric detection was performed on an ABSciex 4500 Qtrap mass spectrometer (ABSciex, Foster City, CA, USA) equipped with a negative electrospray ionization (ESI) interface using multiple reaction monitoring (MRM). The MS parameters were optimized under the selected ion monitoring conditions as follows: curtain gas, 35 psi; ionspray voltage, 4500 V; turbo gas temperature, 450 °C; GS1, 45 psi; GS2, 45 psi. All data were acquired and analyzed by Analyst software (Versions 1.6.2) from ABSciex.
The accumulative excretion percentage was calculated for each analyte as follows. Excretion at time (t) = [concentration of the analyte (ng/mL) at t] × total urine (or feces) volume (mL) at t. The cumulative excretion up to time t (mg) was expressed as a percent (%) cumulative excretion by dividing by the total amount of the analyte ingested (mg): % Cumulative Excretion = 100 × (Σt excretiont) total ingested.

- concentration at 4 h (male, Sprague Dawley, oral CNS 110 mg/kg, 4 h): 204 ± 283 ng/mL
- concentration at 8 h (male, Sprague Dawley, oral CNS 110 mg/kg, 8 h): 274 ± 65 ng/mL
- concentration at 12 h (male, Sprague Dawley, oral CNS 110 mg/kg, 12 h): 164 ± 12 ng/mL
- concentration at 24 h (male, Sprague Dawley, oral CNS 110 mg/kg, 24 h): 119 ± 51 ng/mL
- concentration at 36 h (male, Sprague Dawley, oral CNS 110 mg/kg, 36 h): 653 ± 41 ng/mL
- concentration at 48 h (male, Sprague Dawley, oral CNS 110 mg/kg, 48 h): 658 ± 72 ng/mL
- concentration at 72 h (male, Sprague Dawley, oral CNS 110 mg/kg, 72 h): 153 ± 72 ng/mL
- concentration at 96 h (male, Sprague Dawley, oral CNS 110 mg/kg, 96 h): 35 ± 34 ng/mL
- concentration at 4 h (male, Sprague Dawley, oral NS 60 mg/kg, 4 h): 752 ± 79 ng/mL
- concentration at 8 h (male, Sprague Dawley, oral NS 60 mg/kg, 8 h): 605 ± 22 ng/mL
- concentration at 12 h (male, Sprague Dawley, oral NS 60 mg/kg, 12 h): 602 ± 49 ng/mL
- concentration at 24 h (male, Sprague Dawley, oral NS 60 mg/kg, 24 h): 670 ± 34 ng/mL
- concentration at 36 h (male, Sprague Dawley, oral NS 60 mg/kg, 36 h): 505 ± 14 ng/mL
- concentration at 48 h (male, Sprague Dawley, oral NS 60 mg/kg, 48 h): 704 ± 26 ng/mL
- concentration at 72 h (male, Sprague Dawley, oral NS 60 mg/kg, 72 h): 122 ± 5 ng/mL
- concentration at 96 h (male, Sprague Dawley, oral NS 60 mg/kg, 96 h): 17 ± 1 ng/mL
- concentration at 120 h (male, Sprague Dawley, oral NS 60 mg/kg, 120 h): 15 ± 2 ng/mL
- Accumulative excretion amount (oral CNS 110 mg/kg, 4 h): 2.579 ± 3.701 µg
- Accumulative excretion percentage (oral CNS 110 mg/kg, 4 h): 0.343±0.491%
- Excretion amount (oral CNS 110 mg/kg, 4 h): 2.579 ± 3.701 µg
- Accumulative excretion amount (oral CNS 110 mg/kg, 8 h): 6.687 ± 3.535 µg
- Accumulative excretion percentage (oral CNS 110 mg/kg, 8 h): 0.883±0.462%
- Excretion amount (oral CNS 110 mg/kg, 8 h): 4.108 ± 1.195 µg
- Accumulative excretion amount (oral CNS 110 mg/kg, 12 h): 9.145 ± 3.524 µg
- Accumulative excretion percentage (oral CNS 110 mg/kg, 12 h): 1.204±0.465%
- Excretion amount (oral CNS 110 mg/kg, 12 h): 2.459 ± 0.753 µg
- Accumulative excretion amount (oral CNS 110 mg/kg, 24 h): 11.000 ± 3.256 µg
- Accumulative excretion percentage (oral CNS 110 mg/kg, 24 h): 1.453±0.432%
- Excretion amount (oral CNS 110 mg/kg, 24 h): 1.855 ± 1.046 µg
- Accumulative excretion amount (oral CNS 110 mg/kg, 36 h): 20.700 ± 5.415 µg
- Accumulative excretion percentage (oral CNS 110 mg/kg, 36 h): 2.724±0.715%
- Excretion amount (oral CNS 110 mg/kg, 36 h): 9.700 ± 2.660 µg
- Accumulative excretion amount (oral CNS 110 mg/kg, 48 h): 30.478 ± 7.801 µg
- Accumulative excretion percentage (oral CNS 110 mg/kg, 48 h): 4.011±1.032%
- Excretion amount (oral CNS 110 mg/kg, 48 h): 9.778 ± 2.743 µg
- Accumulative excretion amount (oral CNS 110 mg/kg, 72 h): 32.881 ± 8.515 µg
- Accumulative excretion percentage (oral CNS 110 mg/kg, 72 h): 4.322±1.123%
- Excretion amount (oral CNS 110 mg/kg, 72 h): 2.403 ± 1.477 µg
- Accumulative excretion amount (oral CNS 110 mg/kg, 96 h): 33.451 ± 8.722 µg
- Accumulative excretion percentage (oral CNS 110 mg/kg, 96 h): 4.403±1.154%
- Excretion amount (oral CNS 110 mg/kg, 96 h): 0.570 ± 0.568 µg
- Accumulative excretion percentage (oral CNS 110 mg/kg, 120 h): 4.404±1.151%
- Accumulative excretion amount (oral NS 60 mg/kg, 4 h): 10.755 ± 3.385 µg
- Accumulative excretion percentage (oral NS 60 mg/kg, 4 h): 1.232±0.395%
- Excretion amount (oral NS 60 mg/kg, 4 h): 10.755 ± 3.385 µg
- Accumulative excretion amount (oral NS 60 mg/kg, 8 h): 19.476 ± 6.086 µg
- Accumulative excretion percentage (oral NS 60 mg/kg, 8 h): 2.244± 0.706%
- Excretion amount (oral NS 60 mg/kg, 8 h): 8.721 ± 2.813 µg
- Accumulative excretion amount (oral NS 60 mg/kg, 12 h): 28.152 ± 8.861 µg
- Accumulative excretion percentage (oral NS 60 mg/kg, 12 h): 3.232±1.024%
- Excretion amount (oral NS 60 mg/kg, 12 h): 8.676 ± 2.808 µg
- Accumulative excretion amount (oral NS 60 mg/kg, 24 h): 37.713 ± 11.637 µg
- Accumulative excretion percentage (oral NS 60 mg/kg, 24 h): 4.331±1.342%
- Excretion amount (oral NS 60 mg/kg, 24 h): 9.562 ± 2.795 µg
- Accumulative excretion amount (oral NS 60 mg/kg, 36 h): 45.004 ± 14.004 µg
- Excretion amount (oral NS 60 mg/kg, 36 h): 7.290 ± 2.427 µg
- Accumulative excretion amount (oral NS 60 mg/kg, 48 h): 55.154 ± 17.338 µg
- Accumulative excretion percentage (oral NS 60 mg/kg, 48 h): 6.332±1.991%
- Excretion amount (oral NS 60 mg/kg, 48 h): 10.151 ± 3.361 µg
- Accumulative excretion amount (oral NS 60 mg/kg, 72 h): 56.907 ± 17.892 µg
- Accumulative excretion percentage (oral NS 60 mg/kg, 72 h): 6.534±2.048%
- Excretion amount (oral NS 60 mg/kg, 72 h): 1.753 ± 0.562 µg
- Accumulative excretion amount (oral NS 60 mg/kg, 96 h): 57.148 ± 17.967 µg
- Accumulative excretion percentage (oral NS 60 mg/kg, 96 h): 6.563±2.059%
- Excretion amount (oral NS 60 mg/kg, 96 h): 0.241 ± 0.076 µg
- Accumulative excretion amount (oral NS 60 mg/kg, 120 h): 57.371 ± 18.037 µg
- Accumulative excretion percentage (oral NS 60 mg/kg, 120 h): 6.589±2.068%
- Excretion amount (oral NS 60 mg/kg, 120 h): 0.223 ± 0.076 µg
Compound: CC(C)=CCC[C@](C)(O[C@@H]1O[C@H](CO)[C@@H](O)[C@H](O)[C@H]1O)[C@H]1CC[C@]2(C)[C@@H]1[C@H](O)C[C@@H]1[C@@]3(C)CC[C@H](O[C@@H]4O[C@H](CO)[C@@H](O)[C@H](O)[C@H]4O[C@@H]4O[C@H](CO)[C@@H](O)[C@H](O)[C@H]4O)C(C)(C)[C@@H]3CC[C@]12C [ginsenoside Rd]
